Patent US20200399308A1, “COMPOUNDS AND METHODS FOR ELICITING ANTIMICROBIAL ACTIVITY” (Technion Research & Development Foundation Limited, priority 2018, published 2020)
Converted amounts (≈) assume the structure as drawn. “Also recorded” adds a separate entry of the source. Non-standard residues stand in square brackets, D forms with d. Residues, ends and D or L forms follow the SMILES beside them. *: point of attachment. 12Ado = NCCCCCCCCCCCC(=O)O; Decanoyl = CCCCCCCCCC(=O)*; Orn = NCCC[CH](N)C(=O)O

Columns and labels:
[1] = tested on: Klebsiella pneumoniae 1287; assay: Serum survival assay; assay type: cell-based; conditions: 10 μM Compound B
Experimental: Serum survival assays were performed using fresh serum from normal mice or human serum from the Israel Blood Bank; samples were pooled and stored in aliquots at −80° C. until use. Time-dependent killing was determined in a final volume of 125 μL consisting of 112.5 μL of serum containing either a tested compound, egg white lysozyme (Amresco), lactoferrin (Vivinal lactoferrin FD; DMV International, Delhi, N.Y.), anti-murine C5/C5a antibody (25 μg/mL; ab194637; Abcam), or their combination, as specified. These solutions were supplemented with 12.5 μL of bacteria suspended in PBS at the desired concentration. After the specified time points of exposure, cultures were subjected to serial 10-fold dilutions in saline (0.85% NaCl) and plated for bacterial enumeration after incubation at 37° C. for an additional 24 hours. In heat-treated experiments, sera were incubated at 56° C. for 30 minutes for protein inactivation. Data were obtained from 3 independent experiments.

[2] = tested on: E. coli 25922; assay: Outer-membrane damage assay (NPN uptake); assay type: cell-based, Escherichia coli; conditions: sub-MIC concentrations
Experimental: 1-N-phenylnaphthylamine (NPN) uptake (manifested as fluorescence) reflects outer-membrane damage because normally bacteria are able to exclude hydrophobic substances. As described elsewhere, E. coli 25922 was grown to the mid-logarithmic phase of growth (OD=0.4-0.6 at 600 nm), centrifuged, and resuspended in 5 mM HEPES buffer containing 5 mM glucose to OD 0.5. Next, […] of NPN solution (0.2 mM) was added to every milliliter bacteria suspension. Using black 96-well plates, […] of bacteria suspension was mixed with […] of test compound at the desired concentration and the fluorescence immediately monitored (excitation 360 nm, emission 460 nm) for up to 10 min. Data were obtained from at least 2 independent experiments performed in triplicate.
(§1) (FU denotes fluorescence units; triangles denote Compound B, circles denote PMB, squares denote untreated control; error bars=SD).

[3] = tested on: Escherichia coli mutant ML-35p; assay: Outer and cytoplasmic membrane permeabilization (nitrocefin / ONPG); assay type: cell-based; conditions: E. coli ML-35p, buffer, 16 minutes after addition
Experimental: Membrane permeabilization was assessed using E. coli ML-35p as described elsewhere, to monitor the ability of the compounds to perturb the outer and/or cytoplasmic membranes. Reported data were obtained from ≥2 independent experiments performed in duplicate.
Additional support for this view was obtained by comparing the compounds' susceptibility to damage gram-negative bacteria membranes, using the E. coli mutant ML-35p. Widely described in the literature, the mutant was considered herein as representative of all gram-negative bacteria, rather than a specific species. This mutant is constitutive for cytoplasmic β-galactosidase, lacks lactose permease, and expresses a plasmid-encoded periplasmic β-lactamase. Two chromogenic reporter molecules (nitrocefin and 2-nitrophenyl β-d-galactopyranoside, respectively, absorbing at 486 and 420 nm) were used to monitor permeabilization of the outer membrane and/or cytoplasmic membrane in a single assay.

[4] = tested on: Escherichia coli 25922; assay: Mouse peritonitis-sepsis model; assay type: in vivo
Experimental: A mouse peritonitis-sepsis model was created as described elsewhere. Infection was obtained after intraperitoneal injection of bacteria from a logarithmic-phase culture. Infected mice were treated subcutaneously. The doses were selected to allow comparison with the reference compound and to remain below the maximum tolerated dose after double-dose administration. […] Briefly, mouse peritonitis sepsis model for in vivo studies were performed using male ICR mice ([…]) obtained from Envigo Laboratories (Rehovot, Israel). […] Infection was obtained by intraperitoneal injection of a logarithmic phase culture of E. coli 25922 (1.3±0.2×10^6 CFU permouse in 0.3 ml PBS). […] Infection control mice were injected with the PBS vehicle. Mouse survival was monitored for up to 7 days after treatment. Statistical analyses were performed by paired Student's t test, at α=0.05.

[5] = tested on: E. coli; assay: Minimal bactericidal concentration; assay type: cell-based; conditions: Escherichia coli
[6] = tested on: resistance—nodulation—division deletion mutant; assay: MIC on efflux mutant; assay type: cell-based; conditions: Escherichia coli
Text: The following strains were used for the studies below: Escherichia coli strain ML-35p (American Type Culture Collection [ATCC]; […]. The following gram-positive species was investigated: methicillin-resistant Staphylococcus aureus clinical isolate USA300 10017 (a gift from Dr. Gili Regev-Yochay, Infectious Disease Unit, Sheba Medical Center, Israel). Additional Escherichia coli strains tested include β-lactamase producer 35218; clinical isolate strains 14182, 14384, and U16327; and two K12 isogenic mutants, AG100 and AG100A. Unless otherwise stated, all bacterial cultures were grown overnight in Luria-Bertani broth (LB).
Minimal inhibitory concentrations (MICs) were determined as previously described. […] MICs were determined by microdilution susceptibility testing in 96-well plates (by Nunc) using inocula of 10^5 bacteria per ml. Cell populations were evaluated by optical density measurements at 620 nm and were calibrated against a set of standards. Hundred (100) μl of a bacterial suspension were added to 100 μl of culture medium (control) or to 100 μl of culture medium containing various tested compound concentrations in 2-fold serial dilutions. Inhibition of proliferation was determined by optical density measurements at 620 nm after an incubation period of 24 hours at 37° C. Data were obtained from ≥2 independent experiments performed in duplicate.

[7] = tested on: E. coli 25922; assay: Cytoplasmic membrane depolarization (DiSC35); assay type: cell-based, Escherichia coli; conditions: low Compound B concentrations
Experimental: Cytoplasmic membrane depolarization measurements were assessed by monitoring the displacement of 3,39-dipropylthiadicarbocyanine iodide (DiSC35), a lipophilic potentiometric dye. Mid-logarithmic phase E. coli 25922 at OD 0.6 nm was centrifuged for 5 min at 15,000 g. The pellet was washed twice with 5 mM HEPES containing 5 mM glucose and 2 mM EDTA before addition of DiSC35 ([…]) and quenching at room temperature in the dark for 1 hour. KCl was then added (100 mM) and the suspension incubated overnight (4° C.). One hundred eighty microliters of this bacterial suspension was placed in a black 96-well plate, and fluorescence was recorded until signal stabilization (excitation 620 nm, emission 680 nm). Thereafter […] of the tested compound was added and the fluorescence recorded for up to 30 minutes at 37° C. with shaking. Data were obtained from at least 2 independent experiments performed in duplicate.
as §1

[8] = Critical aggregation concentration by light scattering in PBS; assay type: physicochemical; conditions: light scattering in phosphate-buffered saline
Experimental: Organization of the compounds in aqueous solution was assessed by light-scattering measurements in phosphate buffered saline (PBS; 10 mM Na2HPO4, 150 mM NaCl, pH=7.0). Hemolytic assays were performed as described elsewhere, using fresh mouse red blood cells.
The mean value (±SD) is shown for Compound C; Minimum inhibitory concentration (MIC) of compounds required to inhibit bacterial proliferation after overnight incubation.

CCCCCCCCCC(=O)NC(CCCN)C(=O)NC(CCCN)C(=O)NCCCCCCCCCCCC(=O)NC(CCCN)C(N)=O (centres unmarked) [Compound B] (Decanoyl-[Orn][Orn][12Ado][Orn]-NH2; configuration not given here)
inhibition at 10 µM ([1]; Klebsiella pneumoniae, 1287, 80% mouse serum, 3 h, read-out: growth inhibition in mouse serum): 48% | antibacterial effect in human serum ([1]; absence of exogenous lysozyme): significant growth inhibition | antibacterial effect in human serum ([1]; presence of exogenous lysozyme (18 μM)): potent bactericidal effect | OM permeabilization (NPN fluorescence) [2]: rapidly caused a dose-dependent increase in fluorescence | cytoplasmic membrane permeabilization [3]: similarly unable to permeabilize the cytoplasmic membrane at least up to approximately 10 μM; also recorded: some CM permeabilization occurred only at 10 mM | outer membrane permeabilization [3]: similarly potent in inducing outer membrane permeabilization; also recorded: as efficient as dermaseptin in altering outer membrane permeability | animal survival after infection with pretreated bacteria ([4]; bacteria exposed in vitro to 5 μM Compound B for 15 minutes, neutropenic mice, 3 days post-infection): 40% | survival rate ([4]; neutropenic ICR mice infected i.p., lower dose administrated twice (1 and 6 hours after inoculation)): 70% | mice protected from fatal sepsis (survival) ([4]; neutropenic ICR mice infected i.p., s.c. single dose 1 hour after inoculation): 40% | mice protected from developing sepsis ([4]; neutropenic ICR mice, Compound B […] s.c. alone, 1 hour after infection): 36% | MBC [5]: > 50 µM | MIC [6]: 6.3 µM (≈ 4.48 µg/mL) | CM depolarization (DiSC35 fluorescence) [7]: partial depolarization of the CM | CAC, critical aggregation concentration [8]: >100 µM
